Values quoted from earlier work in PMC3600422 (Journal of molecular biology, 2012).

How the values were obtained:
cancer cells = conditions: Mcl-1 or Bfl-1 overexpressed
[1] = system: small cell lung carcinoma; conditions: mouse models

Binding to Bfl-1 (Bfl-1): do not bind to Mcl-1 or Bfl-1 | Binding to Mcl-1 (Mcl-1): do not bind to Mcl-1
SMILES: CN(C)CC[C@H](CSc1ccccc1)Nc1ccc(S(=O)(=O)NC(=O)c2ccc(N3CCN(Cc4ccccc4-c4ccc(Cl)cc4)CC3)cc2)cc1[N+](=O)[O-] [ABT-737]
Inducing death in cancer cells (cancer cells): ineffective in inducing death in cancer cells when these anti-apoptotic proteins are overexpressed | Tumor regression [1]: can regress or eliminate small cell lung carcinoma
